Data on 18 compounds can be found in patent US8895585B2, “Nicotinamide derivative or salt thereof” (FUJIFILM Corporation, priority 2010, dated 2014).

This experiment deals with T1, glutathione S-transferase (GST)-fused full-length human Syk protein (Homo sapiens, UniProt P43405).
T1 construct: (GST)-fused full-length human Syk protein; GST (glutathione S-transferase); purchased Carna Biosciences
Description: Syk enzyme assay. It counts as biochemical. A digest of the protocol:
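GST-tagged full-length human Syk (baculovirus) preincubated with compound 15 min at room temperature (pH 7.0, 10 mM MgCl2), then reacted 40 min with 0.4 μM biotinylated peptide substrate and 27 μM ATP (final). Phosphorylation read by HTRF (615/665 nm) after EDTA stop; IC50 reported.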

The mark [1] stands for this setting: Syk enzyme assay, Test Example 1, read-out: IC50 of Syk-inhibitory activity.
The mark [2] stands for this setting: read-out: Syk-inhibitory activity (IC50).

Where two headings read alike, the source gives them in different places.

With `CC(=O)Nc1cccc2cc(Nc3nc(N[C@H](Cc4ccccc4)C(N)=O)c(F)cc3C(N)=O)cnc12` [Example 004-047], the IC50 – broadly, the midpoint of a concentration-inhibition curve – under setting [1] is 0.01 to 0.05 µM.
Turning to `CCOCCOCCn1ncc2ccc(Nc3nc(NC4CCCCC4N)c(F)cc3C(N)=O)cc21` (stereo not drawn) [Example 002-049], the IC50 under setting [1] is 0.01 to 0.05 µM.
`COc1cc(Nc2nc(NCC3CC3)c(F)cc2C(N)=O)cc(OC)c1` [Example 16-8, 6-((cyclopropylmethyl)amino)-2-((3,5-dimethoxyphenyl)amino)-5-fluoronicotinamide]: the IC50 under setting [2] is at most 1 µM.
Take `NC(=O)c1cc(F)c(N[C@@H]2CCCC[C@@H]2N)nc1Nc1ccnc2c1ccn2-c1ccccc1` [Example 004-038]: the IC50 under setting [1] is under 0.01 µM.
Consider `NC(=O)c1cc(F)c(NC2CCCCC2N)nc1Nc1cncc(NC(=O)c2cc3ccccc3s2)c1` (stereo not drawn) [Example 027-040], for which the half-maximal inhibitory concentration (IC50) under setting [1] is 0.01 to 0.05 µM.
On the same count and under the same terms, then `COC(=O)c1cc(Nc2nc(N[C@@H]3CCCC[C@@H]3N)c(F)cc2C(N)=O)cnc1N` (relative stereo) [Example 004-142, methyl 2-amino-5-((6-(cis-2-aminocyclohexylamino)-3-carbamoyl-5-fluoropyridin-2-yl)amino)nicotinate], with 0.01 to 0.05 µM.
Same read-out and setting: then `NC(=O)c1cc(F)c(NC2CCCCC2N)nc1Nc1cncc(NC(=O)c2cccnc2)c1` (stereo not drawn) [Example 027-021], with 0.01 to 0.05 µM; and `NC(=O)c1cc(F)c(N[C@@H]2CCCC[C@@H]2N)nc1Nc1cncc(-c2cccc(Cl)c2F)c1` (relative stereo) [Example 004-206, 6-(cis-2-aminocyclohexylamino)-2-((5-(3-chloro-2-fluorophenyl)pyridin-3-yl)amino)-5-fluoronicotinamide], with under 0.01 µM; and `NC(=O)c1cc(F)c(NC2CCCCC2N)nc1Nc1cncc(-c2ccc3c(c2)NC(=O)CO3)c1` (stereo not drawn) [Example 002-177], with under 0.01 µM.
For `CN1CCc2ccc(Nc3nc(N[C@@H]4CCCC[C@@H]4N)c(F)cc3C(N)=O)cc2C1` (relative stereo) [Example 006-077, 6-(cis-2-aminocyclohexylamino)-5-fluoro-2-((2-methyl-1,2,3,4-tetrahydroisoquinolin-7-yl)amino)nicotinamide], the IC50 under setting [1] was 0.01 to 0.05 µM.
`COCC(C)Oc1ccc2cc(Nc3nc(NC4CCCCC4N)c(F)cc3C(N)=O)ccc2n1` (stereo not drawn) [Example 002-098]: the IC50 under setting [1] is under 0.01 µM.
For `CC(=O)Nc1cccc(-c2cncc(Nc3nc(N[C@@H]4CCCC[C@@H]4N)c(F)cc3C(N)=O)c2)c1` [Example 004-223], the IC50 under setting [1] is under 0.01 µM.
Take `Cc1cncc(Nc2nc(NC[C@@H](N)c3ccccc3)c(F)cc2C(N)=O)c1` [Example 006-118, (S)-6-((2-amino-2-phenylethyl)amino)-5-fluoro-2-((5-methylpyridin-3-yl)amino)nicotinamide]: under setting [1], the IC50 was in the range of 0.1 to 1 µM.
Take `CCOc1ccccc1-c1cncc(Nc2nc(N[C@@H]3CCCC[C@@H]3N)c(F)cc2C(N)=O)c1` (relative stereo) [Example 004-182, 6-(cis-2-aminocyclohexylamino)-2-((5-(2-ethoxyphenyl)pyridin-3-yl)amino)-5-fluoronicotinamide]: the IC50 under setting [1] was under 0.01 µM.
With `NC(=O)c1cc(F)c(NC2CCCC[C@@H]2N)nc1Nc1ccnc2c1ccn2CC(=O)N1CCOCC1` (stereo partly drawn) [Example 029-006], the IC50 under setting [1] was under 0.01 µM.
Regarding `Cc1cccc(-c2cncc(Nc3nc(N[C@@H]4CCCC[C@@H]4N)c(F)cc3C(N)=O)c2)c1` (relative stereo) [Example 004-099, 6-(cis-2-aminocyclohexylamino)-5-fluoro-2-((5-(3-methylphenyl)pyridin-3-yl)amino)-nicotinamide], the half-inhibitory concentration (IC50) under setting [1] was under 0.01 µM.
Turning to `NC(=O)c1cc(F)c(N[C@@H]2CCCC[C@@H]2N)nc1Nc1cncc(NC(=O)c2ccccc2)c1` (relative stereo) [Example 26, 6-(cis-2-aminocyclohexylamino)-2-(5-benzoylaminopyridin-3-ylamino)-5-fluoronicotinamide], under setting [2], the IC50 was at most 1 µM.
In the case of `CCOCCOCCn1cc2c(Nc3nc(NC4CCCCC4N)c(F)cc3C(N)=O)cccc2n1` (stereo not drawn) [Example 002-035], the IC50 under setting [1] was in the range of 0.01 to 0.05 µM.
